Target: T1, rTsCTL (TsCTL, Trichinella spiralis type C lectin) (Trichinella spiralis, UniProt A0A0V1BZI5)
T1 construct: gene T01_9679; N-terminal His-tag (pQE-80L), E. coli BL21 (DE3), Ni-NTA purified; 208 aa full length, 24 kDa; C-type lectin domain residues 24-156
Assay: inhibition of haemagglutination of mouse erythrocytes by rTsCTL
Assay type: biochemical
Conditions: rTsCTL 100 ug/mL; 2% mouse erythrocytes; room temperature, 1 h; Ca2+-dependent lectin; TBS pH 8.0; presumed carbohydrate recognition domain

T1 sequence (A0A0V1BZI5 entry or part of it): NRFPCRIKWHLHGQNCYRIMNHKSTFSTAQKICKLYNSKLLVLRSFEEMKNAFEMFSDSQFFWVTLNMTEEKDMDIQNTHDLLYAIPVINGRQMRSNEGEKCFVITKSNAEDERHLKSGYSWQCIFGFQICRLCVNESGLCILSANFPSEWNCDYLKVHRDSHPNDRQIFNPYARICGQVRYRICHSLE

`OC[C@H]1OC(O)[C@@H](O)[C@@H](O)[C@@H]1O` (stereo partly shown) [mannose] gave a minimum inhibitory dose of 100 mM.

— publication PMC9580147, “A novel C-type lectin from Trichinella spiralis mediates larval invasion of host intestinal epithelial cells” (Veterinary Research, 2022)
